Test results published in patent US11980613B2, “Methods for reversing HIV latency using BAF complex modulating compounds” (priority 2018, dated 2024).

Assays:
[1] = test system: BAF target genes c-MYC and p21; assay: Biomarkers: mRNA of BAF target genes p21 and c-MYC in CD4+ T cells; assay type: cell-based, human
Protocol: [drawing 27] i. BRD-K25923209: To Macrocycle 2141-039b (0.804 g, 1.550 mmol) dissolved in MeOH (Volume: 15.50 ml) was added tin(II) chloride dihydrate (3.50 g, 15.50 mmol). The reaction mixture was stirred at 40° C. for 24 h until LC/MS indicated complete consumption of starting material (nitro) and presence of desired mass. Upon completion, the reaction mixture was concentrated and the resulting residue was dissolved in EtOAc and washed with 2 M aq. KOH (2×). The combined aqueous layers were washed with EtOAc (4×). The resulting organic layers were washed with brine, saturated aqueous NaHCO3, water, and brine, dried over MgSO4, filtered, and concentrated. The crude aniline was sufficiently pure to use in the capping step and therefore was used without purification. Note: The workup as described above produces a lot of precipitate/emulsion. This can be overcome by extensive washing or alternately, the reaction can be quenched with 1 volume of 1 M NaOH, stirred with celite for 10 minutes, and filtered prior to workup to yield 33.8% (17.2 mg) over 3 steps. (M+H)^+ calculated=489.286 (M+H)^+ average (3 ESI replicates)=489.2866±0.92. j. BRD-K80443127: A screwtop vial was charged with aniline (BRD-K25923209) (43.3 mg, 0.089 mmol) and CH2Cl2 (Volume: 886 μl, Density: 1.325 g/ml). Isopropyl chloroformate (115 μl, 0.115 mmol) and DIEA (46.4 μl, 0.266 mmol) were added dropwise and reaction stirred under ambient conditions for 1 h. […] The reaction mixture was loaded directly onto SiO2 and purified via ISCO (1-12% MeOH in CH2Cl2, 20 min); Collected fractions 40-44 to afford the product as a yellow oil in 33.8% (17.2 mg) yield. (M+H)^+ calculated=575.3228 (M+H)^+ average (3 ESI replicates)=575.3235±1.32. k. BRD-K04244835: A 2.5 mL microwave vial was charged with aniline (BRD-K25923209) (40 mg, 0.082 mmol) and EtOH (Volume: 819 μl, Density: 0.81 g/ml). Squaramide (CRE-III-001) (20.75 mg, 0.098 mmol), DIEA (42.8 μl, 0.246 mmol), and DMAP (2.000 mg, 0.016 mmol) were added in sequence and the vial was sealed. […] (M+H)^+ calculated=654.365 (M+H)^+ average (3 ESI replicates)=654.3661±1.64. […]

[2] = test system: latent HIV-1 in ex vivo infected human CD4+ T cells; assay: Ex vivo HIV latency model (Lassen), luciferase readout; assay type: cell-based
Protocol: [drawing 27] i. BRD-K25923209: To Macrocycle 2141-039b (0.804 g, 1.550 mmol) dissolved in MeOH (Volume: 15.50 ml) was added tin(II) chloride dihydrate (3.50 g, 15.50 mmol). […] Upon completion, the reaction mixture was concentrated and the resulting residue was dissolved in EtOAc and washed with 2 M aq. KOH (2×). The combined aqueous layers were washed with EtOAc (4×). The resulting organic layers were washed with brine, saturated aqueous NaHCO3, water, and brine, dried over MgSO4, filtered, and concentrated. […] BRD-K80443127: A screwtop vial was charged with aniline (BRD-K25923209) (43.3 mg, 0.089 mmol) and CH2Cl2 (Volume: 886 μl, Density: 1.325 g/ml). Isopropyl chloroformate (115 μl, 0.115 mmol) and DIEA (46.4 μl, 0.266 mmol) were added dropwise and reaction stirred under ambient conditions for 1 h. […] BRD-K04244835: A 2.5 mL microwave vial was charged with aniline (BRD-K25923209) (40 mg, 0.082 mmol) and EtOH (Volume: 819 μl, Density: 0.81 g/ml). Squaramide (CRE-III-001) (20.75 mg, 0.098 mmol), DIEA (42.8 μl, 0.246 mmol), and DMAP (2.000 mg, 0.016 mmol) were added in sequence and the vial was sealed. […] 9. […] 10. […] 11.

## CO[C@H]1CN(C)C(=O)c2cc(NC(=O)OC(C)C)ccc2OC[C@H](C)N(Cc2ccc(-c3ccccn3)cc2)C[C@@H]1C [BRD-K80443127]
[1]; CD4+ T cells from 3 healthy donors, 3 μM, 16 hours
  differential expression of c-MYC and p21: consistent with BAF inhibition
[1]; three patients, 10 μM
  C-MYC transcript levels: significant decrease
  p21 transcript levels: significant decrease
[2]; 24 h treatment
  latency reversal (transcription of latent HIV-1): efficiently triggered HIV transcription
[2]; compared to single agent treatments
  latency reversal in combination with other latency reversal agents: potentiated the effect of other latency reversal agents
